# Where “and” joins values, the source holds several entries; their conditions need not be identical. Identical values can stand only once. Entries after “also recorded” stand apart in the source; their conditions may differ. Like-named read-outs stand apart in the source and are kept apart here.
# Key:
# [1] = biological target: T1, purified bovine adrenal G6PDH (Bos taurus, UniProt F1MMK2); test: Inhibition of purified bovine adrenal G6PDH; type: biochemical; conditions: for inhibition at 0.1 µM: Conc. 0.1 μm; for inhibition at 0.1 µM / inhibition at 1 µM / inhibition at 10 µM: read-out: Percent Inhibition (G6PDH)
# T1 construct: full-length, wild type, no tag
# Procedure, shortened: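 Inhibition of purified bovine adrenal G6PDH enzyme activity, run by the published Oertel and Rebelein (1969) procedure.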
# [2] = Anti-obesity test (body weight, food consumption); type: in vivo, mouse (male A/J); conditions: for mean weekly weight / mean weekly weight ± S.D.: n = 5; for mean weekly weight ± S.D.: 0.36% of diet; for weekly weight (Table 13): 0.54% in food
# Procedure, shortened: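 Male A/J mice, 5 weeks old on arrival, housed 5 per cage at 24 °C on a 12 h light/dark cycle, were given steroid in chow from one week after arrival; dietary concentrations were varied, or 0.54% or 0.36%. Body weight and food consumption (food added minus remaining) were recorded weekly.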
# C57BL/KsJ-db/db mice = test: Anti-hyperglycemic activity (blood glucose); type: in vivo, mouse (C57BL/KsJ-db/db); conditions: for blood glucose lowering compared with DHEA (in words): compound 16 0.2% vs DHEA 0.4% of diet
# Description: C57BL/KsJ-db/db 8 week old female mice were obtained and housed in polycarbonate cages in animal quarters maintained at 24° C. with 12 h of light and 12 h of darkness each day.
# Mice were placed on a control chow or a chow diet containing either 0.4% DHEA or 0.2% of compound 16.
# For determination of blood glucose levels, mice were bled from the orbital sinus using a heparinized capillary tube. 0.2 ml of blood was added to 1.8 ml of water to hemolyze the blood and glucose concentration was determined using the glucose oxidase assay.
# rat uterus [3] = test: Uterotrophic test for estrogenic activity, oral; type: in vivo; conditions: for Mean Uterine Weight: 3 days, n = 6; for estrogenic activity (in words): rat uterotrophic test
# Source text: Uterotrophic Test for Estrogenic Activity. Compound 16 vs. DHEA and Estradiol-benzoate. Compounds Given by Oral Administration.
# Twenty-two day old rats were obtained from Charles River Laboratories. Animals were used at 29 days of age. Test steroids were suspended by homogenization in sesame oil. Rats were orally intubated at 1-2 P.M. for 3 days with a test steroid in sesame oil or with sesame oil alone (control). On the 4th day the animals were killed and the uteri were removed and weighed.
# rat uterus [4] = test: Estrogenic and anti-estrogenic activity (uterine weight, s.c., CD rats); type: in vivo, rat (female CD); conditions: for Mean Uterine Weight ± S.D.: 3 days, DHEA vs 16 experiment; for estrogenic / anti-estrogenic effect, uterine weight (in words): s.c., 60 mg/kg or higher, female CD rats
# Description: Female CD rats, 26-27 days old, were used. Rats were injected subcutaneously for 3 days with either DHEA or 16 in propylene glycol. Control rats received propylene glycol alone. The rats were killed on the 4th day and the uteri were removed and weighed.
# Female CD rats, 26-27 days old, were injected subcutaneously for 3 days with one of the compounds of the present invention at 60 mg/kg in propylene glycol. Controls received propylene glycol alone. On the 4th day the rats were killed and the uteri were dissected out and weighed.
# [5] = system: seminal vesicles plus prostate glands; test: Androgenic and anti-androgenic activity (seminal vesicle plus prostate weight); type: in vivo, mouse (male A/J); conditions: for Mean Seminal Vesicle plus Prostate Weight ± S.D.: 4 weeks; for androgenic / anti-androgenic effect, seminal vesicle plus prostate weight (in words): diet, male A/J mice
# Description: Male A/J mice (5 weeks old) were obtained from the Jackson Laboratory and were housed in polycarbonate cages (5 mice/cage) in animal quarters maintained at 24°±1° C. with 12 hours of light and 12 hours of darkness each day. One week after arrival, mice were placed on a chow diet containing either 0.18% or 0.09% 16 or without steroid. Mice were weighed weekly. After 4 weeks, the mice were killed, and the seminal vesicles plus prostate glands were dissected out and weighed.
# (a) Male A/J mice (5 weeks old) were obtained from the Jackson Laboratory and were housed in polycarbonate cages (5 mice/cage) in animal quarters maintained at 24°[…] C. with 12 hours of light and 12 hours of darkness each day. One week after arrival, the mice were placed on a chow diet containing one of the test compounds of the present invention at 0.36%. After 4 weeks of treatment, the above mice were killed, and the seminal vesicles and prostate glands were dissected out and weighed.
# [6] = system: DMBA-initiated and TPA-promoted skin papilloma formation in mice; conditions: mouse, in vivo; cited from earlier work
# [7] = system: DMBA produced papillomas and carcinomas; conditions: topical; cited from earlier work
# T1 sequence (F1MMK2 31-70): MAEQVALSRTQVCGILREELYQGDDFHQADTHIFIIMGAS
# T1 sequence (F1MMK2 101-575): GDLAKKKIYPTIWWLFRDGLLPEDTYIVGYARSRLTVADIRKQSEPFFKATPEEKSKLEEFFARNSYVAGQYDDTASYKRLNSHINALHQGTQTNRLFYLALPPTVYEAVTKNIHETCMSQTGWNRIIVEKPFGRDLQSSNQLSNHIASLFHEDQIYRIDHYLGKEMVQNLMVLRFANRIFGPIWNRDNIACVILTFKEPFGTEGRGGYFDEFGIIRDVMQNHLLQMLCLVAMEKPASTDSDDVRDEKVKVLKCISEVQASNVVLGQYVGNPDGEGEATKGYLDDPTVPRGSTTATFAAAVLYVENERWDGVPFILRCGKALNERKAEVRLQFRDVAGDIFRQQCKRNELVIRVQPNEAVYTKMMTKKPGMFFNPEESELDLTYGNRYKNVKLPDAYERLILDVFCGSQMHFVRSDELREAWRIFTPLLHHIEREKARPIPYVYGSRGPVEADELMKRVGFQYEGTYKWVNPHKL
smiles,measurement,setting,value
"C[C@H]1CC[C@@]2(C)C(=CC[C@@H]3[C@@H]2CC[C@]2(C)C(=O)CC[C@@H]32)C1 [Compound 16, 3β-methyl-5-androsten-17-one]",inhibition at 0.1 µM,[1],25%
same,inhibition at 1 µM,[1]; Conc. 1 μm,40%
same,inhibition at 10 µM,[1]; Conc. 10 μm,53%
same,Anti-obesity Activity relative to DHEA,[2],more than 2 X
same,mean weekly weight,"[2]; 0.18% of diet, week 0",22.6 ± 2.7 grams
same,mean weekly weight,"[2]; 0.18% of diet, week 1",19.8 ± 2.3 grams
same,mean weekly weight,"[2]; 0.18% of diet, week 2",19.4 ± 2.1 grams
same,mean weekly weight,"[2]; 0.18% of diet, week 3",19.4 ± 2.1 grams
same,mean weekly weight,"[2]; 0.18% of diet, week 4",19.6 ± 2.2 grams
same,mean weekly weight,"[2]; 0.35% of diet, week 0",22.0 ± 2.5 grams
same,mean weekly weight,"[2]; 0.35% of diet, week 1",16.8 ± 1.6 grams
same,mean weekly weight,"[2]; 0.35% of diet, week 2",18.2 ± 0.8 grams
same,mean weekly weight,"[2]; 0.35% of diet, week 3",17.2 ± 1.7 grams
same,mean weekly weight,"[2]; 0.35% of diet, week 4",17.0 ± 1.2 grams
same,mean weekly weight ± S.D.,[2]; week 0,23.3 ± 2.5 grams
same,mean weekly weight ± S.D.,[2]; week 1,18 ± 1.5 grams
same,mean weekly weight ± S.D.,[2]; week 2,17.1 ± 1.6 grams
same,Blood Glucose Levels,"C57BL/KsJ-db/db mice; 0.2% of diet, week 0, listed as Cpd 16",216 ± 61 mg/deciliter
same,Blood Glucose Levels,"C57BL/KsJ-db/db mice; 0.2% of diet, week 0, listed as Cpd. 16",244 ± 32 mg/deciliter
same,Blood Glucose Levels,"C57BL/KsJ-db/db mice; 0.2% of diet, week 1, listed as Cpd 16",135 ± 15 mg/deciliter
same,Blood Glucose Levels,"C57BL/KsJ-db/db mice; 0.2% of diet, week 1, listed as Cpd. 16",143 ± 21 mg/deciliter
same,Blood Glucose Levels,"C57BL/KsJ-db/db mice; 0.2% of diet, week 2, listed as Cpd 16",118 ± 12 mg/deciliter
same,Blood Glucose Levels,"C57BL/KsJ-db/db mice; 0.2% of diet, week 2, listed as Cpd. 16",134 ± 13 mg/deciliter
same,Blood Glucose Levels,"C57BL/KsJ-db/db mice; 0.2% of diet, week 3",102 ± 8 mg/deciliter
same,Blood Glucose Levels,"C57BL/KsJ-db/db mice; 0.2% of diet, week 4",105 ± 5 mg/deciliter
same,Blood Glucose Levels,"C57BL/KsJ-db/db mice; after 0.2% of diet, 24 hrs. on control diet",147 ± 10 mg/deciliter
same,Blood Glucose Levels,"C57BL/KsJ-db/db mice; after 0.2% of diet, 48 hrs. on control diet",262 ± 23 mg/deciliter
same,blood glucose lowering compared with DHEA (in words),C57BL/KsJ-db/db mice,more effective in lowering blood glucose concentration
same,blood glucose lowering compared with DHEA (in words),C57BL/KsJ-db/db mice; listed as compound 16,significantly more slowly in the mice that had received compound 16
same,Mean Uterine Weight,rat uterus [3]; 200 mg/kg oral,189 ± 14 Mgs
same,Mean Uterine Weight,rat uterus [3]; 400 mg/kg oral,174 ± 20 Mgs
same,estrogenic activity (in words),rat uterus [3],Neither compounds 16 nor 2 are estrogenic; also recorded: devoid of estrogenic activity in the rat uterotrophic test
same,estrogenic activity (in words),rat uterus [3]; listed as compound 16,without any apparent estrogenic effect
same,Mean Uterine Weight ± S.D.,rat uterus [4]; 60 mg/kg s.c.,126 ± 87 mg/100 gm body weight
same,Mean Uterine Weight ± S.D.,rat uterus [4]; 120 mg/kg s.c.,111 ± 27 mg/100 gm body weight
same,"estrogenic / anti-estrogenic effect, uterine weight (in words)",rat uterus [4]; 60 mg/kg,reduction in uterine weight; also recorded: apparently acts as an anti-estrogen
same,"estrogenic / anti-estrogenic effect, uterine weight (in words)","rat uterus [4]; listed as cmpd. 16, 60 mg/kg",significantly greater than that of the cmpd. 21 treated rats; also recorded: highly significant anti-estrogenic activity
same,Mean Seminal Vesicle plus Prostate Weight ± S.D.,"[5]; 0.09% of diet, n = 6",4.0 ± 0.7 mg/100 gm body weight
same,Mean Seminal Vesicle plus Prostate Weight ± S.D.,"[5]; 0.18% of diet, n = 6",3.4 ± 0.11 mg/100 gm body weight
same,Mean Seminal Vesicle plus Prostate Weight ± S.D.,"[5]; 0.36% of diet, n = 5",3.0 ± 0.3 mg/100 gm body weight
same,"androgenic / anti-androgenic effect, seminal vesicle plus prostate weight (in words)",[5],significantly reduced the weight of the seminal vesicles and prostate glands; also recorded: significantly reduced the seminal vesicle plus prostate gland weight
same,"androgenic / anti-androgenic effect, seminal vesicle plus prostate weight (in words)",[5]; listed as Cmpd. 16,significantly reduced seminal vesicle plus prostate weight
same,inhibition of DMBA-initiated and TPA-promoted skin papilloma formation (in words),[6],inhibit
same,inhibition of DMBA produced papillomas and carcinomas (in words),[7],inhibits DMBA produced papillomas and carcinomas
"C[C@]12CC[C@H](O)CC1=CC[C@@H]1[C@@H]2CC[C@]2(C)C(=O)CC[C@@H]12 [DHEA, 3β-Hydroxy-5-androst-en-17-one, reference compound]",inhibition at 0.1 µM,[1],12%
same,Percent Inhibition (G6PDH),[1]; Conc. 1 μm,17%
same,inhibition at 1 µM,[1]; Conc. 1 μm,36%
same,Percent Inhibition (G6PDH),[1]; Conc. 10 μm,57%
same,Percent Inhibition (G6PDH),"[1]; Conc. 10 μm, listed as 1",53%
same,inhibition at 10 µM,[1]; Conc. 10 μm,51%
same,mean weekly weight,"[2]; 0.18% of diet, week 0",22.4 ± 1.8 grams
same,mean weekly weight,"[2]; 0.18% of diet, week 1",20.4 ± 1.9 grams
same,mean weekly weight,"[2]; 0.18% of diet, week 2",21.1 ± 0.5 grams
same,mean weekly weight,"[2]; 0.18% of diet, week 3",22.4 ± 0.8 grams
same,mean weekly weight,"[2]; 0.18% of diet, week 4",23.6 ± 1.5 grams
same,mean weekly weight,"[2]; 0.35% of diet, week 0",21.8 ± 2.2 grams and 22.4 ± 2.3 grams
same,mean weekly weight,"[2]; 0.35% of diet, week 1",20.0 ± 2.3 grams and 16.0 ± 1.6 grams
same,mean weekly weight,"[2]; 0.35% of diet, week 2",19.2 ± 1.8 grams and 20.2 ± 0.9 grams
same,mean weekly weight,"[2]; 0.35% of diet, week 3",19.6 ± 2.8 grams and 21.0 ± 0.8 grams
same,mean weekly weight,"[2]; 0.35% of diet, week 4",22.2 ± 2.4 grams and 22.2 ± 0.9 grams
same,mean weekly weight,"[2]; 0.35% of diet, week 5",21.8 ± 2.2 grams
same,mean weekly weight,"[2]; 0.35% of diet, week 7",23.2 ± 2.4 grams
same,mean weekly weight ± S.D.,[2]; week 0,23.2 ± 1.3 grams
same,mean weekly weight ± S.D.,[2]; week 1,21.8 ± 1.0 grams
same,mean weekly weight ± S.D.,[2]; week 2,20.8 ± 1.0 grams
same,anti-weight effect (in words),"[2]; 400 mg/kg repeated (DHEA), cancer preventive dosages (19, 20)",produces an anti-weight effect
same,weekly weight (Table 13),[2]; week 0,21.2 ± 1.4
same,weekly weight (Table 13),[2]; week 1,16.8 ± 1.6
same,weekly weight (Table 13),[2]; week 2,16.7 ± 2.0
same,weekly weight (Table 13),[2]; week 3,18.8 ± 1.1
same,weekly weight (Table 13),[2]; week 4,19.0 ± 2.0
same,weekly weight (Table 13),[2]; week 5,19.6 ± 2.8
same,mean weekly weight,"[2]; 0.7% of diet, week 0",21.1 ± 2.8 grams and 22.0 ± 2.5 grams
same,mean weekly weight,"[2]; 0.7% of diet, week 1",15.2 ± 1.8 grams and 17.0 ± 1.9 grams
same,mean weekly weight,"[2]; 0.7% of diet, week 2",17.0 ± 2.0 grams and 17.8 ± 1.8 grams
same,mean weekly weight,"[2]; 0.7% of diet, week 3",17.8 ± 1.1 grams and 18.4 ± 1.8 grams
same,mean weekly weight,"[2]; 0.7% of diet, week 4",18.8 ± 1.1 grams and 19.2 ± 1.6 grams
same,mean weekly weight,"[2]; 0.7% of diet, week 5",18.2 ± 1.3 grams and 20.2 ± 1.9 grams
same,mean weekly weight,"[2]; 0.7% of diet, week 6",19.8 ± 2.0 grams
same,Anti-obesity Activity relative to DHEA,"[2]; Table 14, DHEA = 1×",1 ×
same,Blood Glucose Levels,"C57BL/KsJ-db/db mice; 0.4% of diet, week 0",214 ± 59 mg/deciliter and 232 ± 28 mg/deciliter
same,Blood Glucose Levels,"C57BL/KsJ-db/db mice; 0.4% of diet, week 1",161 ± 19 mg/deciliter and 132 ± 14 mg/deciliter
same,Blood Glucose Levels,"C57BL/KsJ-db/db mice; 0.4% of diet, week 2",145 ± 19 mg/deciliter and 135 ± 37 mg/deciliter
same,Blood Glucose Levels,"C57BL/KsJ-db/db mice; 0.4% of diet, week 3",117 ± 12 mg/deciliter
same,Blood Glucose Levels,"C57BL/KsJ-db/db mice; 0.4% of diet, week 4",112 ± 4 mg/deciliter
same,Anti-diabetic Activity relative to DHEA,"C57BL/KsJ-db/db mice; Table 15, DHEA = 1×",1 ×
same,Blood Glucose Levels,"C57BL/KsJ-db/db mice; after 0.4% of diet, 24 hrs. on control diet",192 ± 32 mg/deciliter
same,Blood Glucose Levels,"C57BL/KsJ-db/db mice; after 0.4% of diet, 48 hrs. on control diet",310 ± 37 mg/deciliter
same,Mean Uterine Weight,rat uterus [3]; 400 mg/kg oral,261 ± 23 Mgs
same,estrogenic activity (in words),rat uterus [3],significantly estrogenic
same,Mean Uterine Weight ± S.D.,rat uterus [4]; 60 mg/kg s.c.,222 ± 77 mg/100 gm body weight
same,Mean Seminal Vesicle plus Prostate Weight ± S.D.,"[5]; 0.36% of diet, n = 5",6.5 ± 1.2 mg/100 gm body weight
same,"androgenic / anti-androgenic effect, seminal vesicle plus prostate weight (in words)",[5],significantly reduced seminal vesical plus prostate gland weight
same,inhibition of DMBA-initiated and TPA-promoted skin papilloma formation (in words),[6],inhibit
same,inhibition of DMBA produced papillomas and carcinomas (in words),[7],inhibits DMBA produced papillomas and carcinomas

# Source: US5804576A, “Derivatives of 5-androsten-17-ones and 5-androstan-17-ones” (Research Corporation Technologies, Inc., priority 1986, dated 1998)
